# Measurements as given in PubChem BioAssay (NCI).
#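 In this assay, cells in 96-well plates receive the compound at five concentrations for 48 hours. Endpoints are linearly interpolated between the surrounding concentrations. GI50 is the concentration that inhibits growth by half. TGI: total growth inhibition.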
# Legend:
# Assay in all cases: NCI tumour cell line growth inhibition, 48 h
# OVCAR-8 ovarian = system: OVCAR-8 ovarian
# OVCAR-3 ovarian = system: OVCAR-3 ovarian
# SF-539 CNS = system: SF-539 CNS
# UACC-257 melanoma = system: UACC-257 melanoma
# MDA-MB-231 breast = system: MDA-MB-231 breast
# MOLT-4 leukemia = system: MOLT-4 leukemia
# COLO 205 colon = system: COLO 205 colon
# HOP-62 NSCLC = system: HOP-62 NSCLC
# RXF 393 renal = system: RXF 393 renal
# A498 renal = system: A498 renal
# SK-OV-3 ovarian = system: SK-OV-3 ovarian
# HS 578T breast = system: HS 578T breast
# MDA-MB-435 = system: MDA-MB-435
# SR leukemia = system: SR leukemia
# HCT-116 colon = system: HCT-116 colon
# IGROV1 ovarian = system: IGROV1 ovarian
# HOP-92 NSCLC = system: HOP-92 NSCLC
# SK-MEL-2 melanoma = system: SK-MEL-2 melanoma
# CCRF-CEM leukemia = system: CCRF-CEM leukemia
# MALME-3M melanoma = system: MALME-3M melanoma
# HT29 colon = system: HT29 colon
# 786-0 renal = system: 786-0 renal
# HL-60(TB) leukemia = system: HL-60(TB) leukemia
# SNB-75 CNS = system: SNB-75 CNS
# RPMI-8226 leukemia = system: RPMI-8226 leukemia
# LOX IMVI melanoma = system: LOX IMVI melanoma
# K-562 leukemia = system: K-562 leukemia
# OVCAR-5 ovarian = system: OVCAR-5 ovarian
# U251 CNS = system: U251 CNS
# UACC-62 melanoma = system: UACC-62 melanoma
# SF-295 CNS = system: SF-295 CNS
# SNB-19 CNS = system: SNB-19 CNS
# SK-MEL-28 melanoma = system: SK-MEL-28 melanoma
# NCI-H23 lung = system: NCI-H23 lung
# SF-268 CNS = system: SF-268 CNS
# BT-549 breast = system: BT-549 breast
# M14 melanoma = system: M14 melanoma
# SW-620 colon = system: SW-620 colon
# OVCAR-4 ovarian = system: OVCAR-4 ovarian
# NCI-H226 lung = system: NCI-H226 lung
# PC-3 prostate = system: PC-3 prostate
# HCT-15 colon = system: HCT-15 colon
# T-47D breast = system: T-47D breast
# MCF7 breast = system: MCF7 breast
# SK-MEL-5 melanoma = system: SK-MEL-5 melanoma
# NCI-H460 lung = system: NCI-H460 lung
# NCI/ADR-RES ovarian = system: NCI/ADR-RES ovarian
# SN12C renal = system: SN12C renal
# HCC-2998 colon = system: HCC-2998 colon
# DU-145 prostate = system: DU-145 prostate
# UO-31 renal = system: UO-31 renal
# EKVX NSCLC = system: EKVX NSCLC
# NCI-H522 lung = system: NCI-H522 lung
# A549 NSCLC = system: A549 NSCLC
# ACHN renal = system: ACHN renal
# CAKI-1 renal = system: CAKI-1 renal
# KM12 colon = system: KM12 colon
# TK-10 renal = system: TK-10 renal
compound,measurement,setting,value
COc1cc(C2CC(=O)Nc3c2cc(Br)c2ccccc32)cc(Br)c1OC (centres undefined),GI50,OVCAR-8 ovarian,1.74 µM
same,TGI,OVCAR-8 ovarian,> 100 µM
same,GI50,OVCAR-3 ovarian,1.14 µM
same,TGI,OVCAR-3 ovarian,2.52 µM
same,GI50,SF-539 CNS,3.27 µM
same,TGI,SF-539 CNS,> 58.6 µM
same,GI50,UACC-257 melanoma,12.6 µM
same,TGI,UACC-257 melanoma,> 100 µM
same,GI50,MDA-MB-231 breast,2.66 µM
same,TGI,MDA-MB-231 breast,7.42 µM
same,GI50,MOLT-4 leukemia,2.78 µM
same,TGI,MOLT-4 leukemia,> 47.6 µM
same,GI50,COLO 205 colon,2.06 µM
same,TGI,COLO 205 colon,> 100 µM
same,GI50,HOP-62 NSCLC,1.45 µM
same,TGI,HOP-62 NSCLC,3.9 µM
same,GI50,RXF 393 renal,1.73 µM
same,TGI,RXF 393 renal,3.93 µM
same,GI50,A498 renal,1 µM
same,TGI,A498 renal,3.29 µM
same,GI50,SK-OV-3 ovarian,1.76 µM
same,TGI,SK-OV-3 ovarian,3.35 µM
same,GI50,HS 578T breast,1.78 µM
same,TGI,HS 578T breast,> 54.2 µM
same,GI50,MDA-MB-435,0.247 µM
same,TGI,MDA-MB-435,0.864 µM
same,GI50,SR leukemia,0.416 µM
same,TGI,SR leukemia,1.77 µM
same,GI50,HCT-116 colon,0.602 µM
same,TGI,HCT-116 colon,2.44 µM
same,GI50,IGROV1 ovarian,2.61 µM
same,TGI,IGROV1 ovarian,> 63.9 µM
same,GI50,HOP-92 NSCLC,1 µM
same,TGI,HOP-92 NSCLC,7.07 µM
same,GI50,SK-MEL-2 melanoma,3.67 µM
same,TGI,SK-MEL-2 melanoma,27.2 µM
same,GI50,CCRF-CEM leukemia,2.01 µM
same,TGI,CCRF-CEM leukemia,21.5 µM
same,GI50,MALME-3M melanoma,1.81 µM
same,TGI,MALME-3M melanoma,67.2 µM
same,GI50,HT29 colon,0.514 µM
same,TGI,HT29 colon,4.21 µM
same,GI50,786-0 renal,1.76 µM
same,TGI,786-0 renal,3.79 µM
same,GI50,HL-60(TB) leukemia,1.06 µM
same,TGI,HL-60(TB) leukemia,3.98 µM
same,GI50,SNB-75 CNS,0.998 µM
same,TGI,SNB-75 CNS,2.52 µM
same,GI50,RPMI-8226 leukemia,3.71 µM
same,TGI,RPMI-8226 leukemia,> 100 µM
same,GI50,LOX IMVI melanoma,1.65 µM
same,TGI,LOX IMVI melanoma,> 100 µM
same,GI50,K-562 leukemia,0.493 µM
same,TGI,K-562 leukemia,20.5 µM
same,GI50,OVCAR-5 ovarian,3.02 µM
same,TGI,OVCAR-5 ovarian,> 100 µM
same,GI50,U251 CNS,1.42 µM
same,TGI,U251 CNS,3.7 µM
same,GI50,UACC-62 melanoma,1.64 µM
same,TGI,UACC-62 melanoma,> 100 µM
same,GI50,SF-295 CNS,1.47 µM
same,TGI,SF-295 CNS,5.4 µM
same,GI50,SNB-19 CNS,2.69 µM
same,TGI,SNB-19 CNS,9.96 µM
same,GI50,SK-MEL-28 melanoma,2.98 µM
same,TGI,SK-MEL-28 melanoma,> 100 µM
same,GI50,NCI-H23 lung,4.37 µM
same,TGI,NCI-H23 lung,> 100 µM
same,GI50,SF-268 CNS,4.63 µM
same,TGI,SF-268 CNS,> 100 µM
same,GI50,BT-549 breast,3.47 µM
same,TGI,BT-549 breast,> 71 µM
same,GI50,M14 melanoma,1.08 µM
same,TGI,M14 melanoma,> 100 µM
same,GI50,SW-620 colon,0.53 µM
same,TGI,SW-620 colon,> 100 µM
same,GI50,OVCAR-4 ovarian,0.349 µM
same,TGI,OVCAR-4 ovarian,1.44 µM
same,GI50,NCI-H226 lung,2.34 µM
same,TGI,NCI-H226 lung,5.57 µM
same,GI50,PC-3 prostate,2.62 µM
same,TGI,PC-3 prostate,> 100 µM
same,GI50,HCT-15 colon,0.907 µM
same,TGI,HCT-15 colon,> 100 µM
same,GI50,T-47D breast,1.61 µM
same,TGI,T-47D breast,5.26 µM
same,GI50,MCF7 breast,0.642 µM
same,TGI,MCF7 breast,> 100 µM
same,GI50,SK-MEL-5 melanoma,2.82 µM
same,TGI,SK-MEL-5 melanoma,> 100 µM
same,GI50,NCI-H460 lung,1.66 µM
same,TGI,NCI-H460 lung,5 µM
same,GI50,NCI/ADR-RES ovarian,0.398 µM
same,TGI,NCI/ADR-RES ovarian,2.63 µM
same,GI50,SN12C renal,2.54 µM
same,TGI,SN12C renal,> 100 µM
same,GI50,HCC-2998 colon,4.53 µM
same,TGI,HCC-2998 colon,> 100 µM
same,GI50,DU-145 prostate,6.38 µM
same,TGI,DU-145 prostate,> 100 µM
C=C1CC[C@@H]2[C@](C)(COC(C)=O)[C@H](OC(C)=O)CC[C@@]2(C)[C@@H]1CC(Nc1ccc(S(=O)(=O)Nc2nccs2)cc1)C1=CCOC1=O (some centres undefined),GI50,OVCAR-8 ovarian,3.14 µM
same,TGI,OVCAR-8 ovarian,10.8 µM
same,GI50,OVCAR-3 ovarian,1.88 µM
same,TGI,OVCAR-3 ovarian,3.64 µM
same,GI50,SF-539 CNS,2.35 µM
same,TGI,SF-539 CNS,6.31 µM
same,GI50,UO-31 renal,4.07 µM
same,TGI,UO-31 renal,16.1 µM
same,GI50,EKVX NSCLC,14 µM
same,TGI,EKVX NSCLC,27 µM
same,GI50,UACC-257 melanoma,2.55 µM
same,TGI,UACC-257 melanoma,5.61 µM
same,GI50,MDA-MB-231 breast,3.31 µM
same,TGI,MDA-MB-231 breast,8.25 µM
same,GI50,MOLT-4 leukemia,3.68 µM
same,TGI,MOLT-4 leukemia,73.2 µM
same,GI50,COLO 205 colon,3.14 µM
same,TGI,COLO 205 colon,10.5 µM
same,GI50,HOP-62 NSCLC,13.8 µM
same,TGI,HOP-62 NSCLC,27.5 µM
same,GI50,RXF 393 renal,2.36 µM
same,TGI,RXF 393 renal,4.74 µM
same,GI50,A498 renal,18.2 µM
same,TGI,A498 renal,32.6 µM
same,GI50,SK-OV-3 ovarian,14.4 µM
same,TGI,SK-OV-3 ovarian,27.8 µM
same,GI50,HS 578T breast,10.8 µM
same,TGI,HS 578T breast,60.4 µM
same,GI50,MDA-MB-435,3.29 µM
same,TGI,MDA-MB-435,12.7 µM
same,GI50,NCI-H522 lung,1.72 µM
same,TGI,NCI-H522 lung,4.32 µM
same,GI50,SR leukemia,1.33 µM
same,TGI,SR leukemia,> 100 µM
same,GI50,HCT-116 colon,1.75 µM
same,TGI,HCT-116 colon,3.75 µM
same,GI50,IGROV1 ovarian,4.54 µM
same,TGI,IGROV1 ovarian,17.1 µM
same,GI50,HOP-92 NSCLC,12.4 µM
same,TGI,HOP-92 NSCLC,25.3 µM
same,GI50,SK-MEL-2 melanoma,10.6 µM
same,TGI,SK-MEL-2 melanoma,24.4 µM
same,GI50,CCRF-CEM leukemia,2.28 µM
same,TGI,CCRF-CEM leukemia,6.76 µM
same,GI50,A549 NSCLC,3.67 µM
same,TGI,A549 NSCLC,11.2 µM
same,GI50,HT29 colon,2.17 µM
same,TGI,HT29 colon,4.7 µM
same,GI50,786-0 renal,2.55 µM
same,TGI,786-0 renal,6.74 µM
same,GI50,HL-60(TB) leukemia,3.01 µM
same,TGI,HL-60(TB) leukemia,13.3 µM
same,GI50,SNB-75 CNS,2.83 µM
same,TGI,SNB-75 CNS,15.6 µM
same,GI50,RPMI-8226 leukemia,2.49 µM
same,TGI,RPMI-8226 leukemia,7.62 µM
same,GI50,ACHN renal,5.99 µM
same,TGI,ACHN renal,18.9 µM
same,GI50,CAKI-1 renal,3.8 µM
same,TGI,CAKI-1 renal,14.2 µM
same,GI50,LOX IMVI melanoma,1.59 µM
same,TGI,LOX IMVI melanoma,3.31 µM
same,GI50,K-562 leukemia,3.6 µM
same,TGI,K-562 leukemia,29 µM
same,GI50,OVCAR-5 ovarian,4.82 µM
same,TGI,OVCAR-5 ovarian,17.6 µM
same,GI50,U251 CNS,1.86 µM
same,TGI,U251 CNS,3.5 µM
same,GI50,UACC-62 melanoma,1.76 µM
same,TGI,UACC-62 melanoma,4.42 µM
same,GI50,SF-295 CNS,13.8 µM
same,TGI,SF-295 CNS,27.2 µM
same,GI50,SNB-19 CNS,4.36 µM
same,TGI,SNB-19 CNS,16.1 µM
same,GI50,SK-MEL-28 melanoma,3.95 µM
same,TGI,SK-MEL-28 melanoma,15.1 µM
same,GI50,NCI-H23 lung,10 µM
same,TGI,NCI-H23 lung,24.8 µM
same,GI50,SF-268 CNS,11.3 µM
same,TGI,SF-268 CNS,25.9 µM
same,GI50,BT-549 breast,2.43 µM
same,TGI,BT-549 breast,6.5 µM
same,GI50,M14 melanoma,2.83 µM
same,TGI,M14 melanoma,10.5 µM
same,GI50,SW-620 colon,1.85 µM
same,TGI,SW-620 colon,3.98 µM
same,GI50,OVCAR-4 ovarian,4.53 µM
same,TGI,OVCAR-4 ovarian,17.7 µM
same,GI50,NCI-H226 lung,2.36 µM
same,TGI,NCI-H226 lung,5.37 µM
same,GI50,PC-3 prostate,7.74 µM
same,TGI,PC-3 prostate,21.5 µM
same,GI50,KM12 colon,7.58 µM
same,TGI,KM12 colon,21.7 µM
same,GI50,HCT-15 colon,1.73 µM
same,TGI,HCT-15 colon,4.12 µM
same,GI50,T-47D breast,3.39 µM
same,TGI,T-47D breast,20.8 µM
same,GI50,MCF7 breast,2.59 µM
same,TGI,MCF7 breast,13.6 µM
same,GI50,SK-MEL-5 melanoma,4.79 µM
same,TGI,SK-MEL-5 melanoma,17.1 µM
same,GI50,NCI-H460 lung,10.7 µM
same,TGI,NCI-H460 lung,25.3 µM
same,GI50,NCI/ADR-RES ovarian,2.97 µM
same,TGI,NCI/ADR-RES ovarian,12.7 µM
same,GI50,TK-10 renal,9.45 µM
same,TGI,TK-10 renal,21.2 µM
same,GI50,SN12C renal,1.87 µM
same,TGI,SN12C renal,4.39 µM
same,GI50,HCC-2998 colon,7.78 µM
same,TGI,HCC-2998 colon,21.3 µM
same,GI50,DU-145 prostate,4.47 µM
same,TGI,DU-145 prostate,15.8 µM
